In ChEMBL document CHEMBL6182867, “Discovery of ultra short β-peptoids with selective activity against drug-resistant Mycobacterium tuberculosis” (Eur J Med Chem, 2025):
Converted amounts (≈) assume the structure as drawn. The source made the active and inactive calls. The rule behind the calls is not given here.

What was measured:
[1] = tested on: Mycobacterium tuberculosis; assay: Antitubercular activity against Mycobacterium tuberculosis H37Rv ATCC 27294 by microplate alamar blue assay; format: functional
[2] = tested on: Mycobacterium tuberculosis; assay: Antitubercular activity against Mycobacterium tuberculosis H37Rv by microplate alamar blue assay; format: functional
[3] = tested on: Mycobacteroides abscessus; assay: Antibacterial activity against Mycobacterium abscessus ATCC 19977 incubated for 3 days by microplate alamar blue assay; format: functional; conditions: ATCC 19977, 72 h, time 3 day
[4] = tested on: Mycobacteroides chelonae; assay: Antibacterial activity against Mycobacteroides chelonae ATCC 35752 incubated for 3 days by microplate alamar blue assay; format: functional; conditions: ATCC 35752, 72 h, time 3 day
[5] = tested on: Mycobacterium marinum; assay: Antibacterial activity against Mycobacterium marinum ATCC 927 incubated for 5 days by microplate alamar blue assay; format: functional; conditions: ATCC 927, 120 h, time 5 day
[6] = tested on: Mycobacterium avium; assay: Antibacterial activity against Mycobacterium avium ATCC 15769 incubated for 6 days by microplate alamar blue assay; format: functional; conditions: ATCC 15769, 144 h, time 6 day
[7] = tested on: Mycobacterium kansasii; assay: Antibacterial activity against Mycobacterium kansasii ATCC 12478 incubated for 7 days by microplate alamar blue assay; format: functional; conditions: ATCC 12478, 168 h, time 7 day
[8] = tested on: Enterococcus faecium; assay: Antibacterial activity against Enterococcus faecium by microplate alamar blue assay; format: functional
[9] = tested on: Staphylococcus aureus; assay: Antibacterial activity against Staphylococcus aureus by microplate alamar blue assay; format: functional
[10] = tested on: Klebsiella pneumoniae; assay: Antibacterial activity against Klebsiella pneumoniae by microplate alamar blue assay; format: functional
[11] = tested on: Acinetobacter baumannii; assay: Antibacterial activity against Acinetobacter baumannii by microplate alamar blue assay; format: functional
[12] = tested on: Pseudomonas aeruginosa; assay: Antibacterial activity against Pseudomonas aeruginosa by microplate alamar blue assay; format: functional
[13] = tested on: Klebsiella aerogenes; assay: Antibacterial activity against Enterobacter aerogenes by microplate alamar blue assay; format: functional
[14] = tested on: Candida albicans; assay: Antifungal activity against Candida albicans by microplate alamar blue assay; format: functional
[15] = tested on: Mycobacteroides abscessus; assay: Antibacterial activity against Mycobacterium abscessus ATCC 19977 assessed as growth inhibition at 100 ug/ml incubated for 3 days by microplate alamar blue assay relative to control; format: functional; conditions: ATCC 19977, 72 h, time 3 day, read-out: GI
[16] = tested on: Mycobacteroides chelonae; assay: Antibacterial activity against Mycobacteroides chelonae ATCC 35752 assessed as growth inhibition at 100 ug/ml incubated for 3 days by microplate alamar blue assay relative to control; format: functional; conditions: ATCC 35752, 72 h, time 3 day, read-out: GI
[17] = tested on: Mycobacterium marinum; assay: Antibacterial activity against Mycobacterium marinum ATCC 927 assessed as growth inhibition at 100 ug/ml incubated for 5 days by microplate alamar blue assay relative to control; format: functional; conditions: ATCC 927, 120 h, time 5 day, read-out: GI
[18] = tested on: Mycobacterium avium; assay: Antibacterial activity against Mycobacterium avium ATCC 15769 assessed as growth inhibition at 100 ug/ml incubated for 6 days by microplate alamar blue assay relative to control; format: functional; conditions: ATCC 15769, 144 h, time 6 day, read-out: GI
[19] = tested on: Mycobacterium kansasii; assay: Antibacterial activity against Mycobacterium kansasii ATCC 12478 assessed as growth inhibition at 100 ug/ml incubated for 7 days by microplate alamar blue assay relative to control; format: functional; conditions: ATCC 12478, 168 h, time 7 day, read-out: GI
[20] = tested on: Mycobacterium tuberculosis; assay: Antitubercular activity against Mycobacterium tuberculosis KMA 1354 by microplate alamar blue assay; format: functional
[21] = tested on: Mycobacterium tuberculosis; assay: Antitubercular activity against Mycobacterium tuberculosis KMA 3899 by microplate alamar blue assay; format: functional
[22] = tested on: Mycobacterium tuberculosis; assay: Antitubercular activity against Mycobacterium tuberculosis KMA 4244 by microplate alamar blue assay; format: functional
[23] = tested on: Mycobacterium tuberculosis; assay: Antitubercular activity against Mycobacterium tuberculosis KMA 4439 by microplate alamar blue assay; format: functional
[24] = tested on: Mycobacterium tuberculosis; assay: Antitubercular activity against Mycobacterium tuberculosis KMA 5282 by microplate alamar blue assay; format: functional
[25] = Cytotoxicity against African green monkey Vero cells measured after 3 days by resazurin dye based fluorescence assay; format: toxicity, cell-based; conditions: African green monkey (Chlorocebus sabaeus)
[26] = tested on: Mycobacterium tuberculosis; assay: Bactericidal activity against Mycobacterium tuberculosis H37Rv measured up to 7 days by luminescence assay; format: functional; conditions: time <= 7 day
[27] = tested on: Mycobacterium tuberculosis; assay: Antitubercular activity against Mycobacterium tuberculosis H37Rv assessed as post antibiotic affect up to 100 ug/ml measured daily for up to 14 days by luminescence assay; format: functional, organism-based; conditions: dose <= 100.0 µg/ml, time <= 14.0 day
[28] = tested on: Mitochondrial membrane; assay: Induction of […] membrane potential loss in Mycobacterium tuberculosis H37Rv at <=MIC measured after 15 mins by DiOC2 dye based fluorescence assay; format: cell membranes
[29] = tested on: Mitochondrial membrane; assay: Induction of […] membrane potential loss in Mycobacterium tuberculosis H37Rv at <=MIC measured after 24 hrs by DiOC2 dye based fluorescence assay; format: cell membranes
[30] = tested on: Mycobacterium tuberculosis; assay: Synergistic antitubercular activity against Mycobacterium tuberculosis H37Rv assessed as bedaquiline MIC=>90 at 0.8 ug/ml by microplate alamar blue assay (reference value: 0.05 uM); format: functional; conditions: dose 0.8 µg/ml
[31] = tested on: Mycobacterium tuberculosis; assay: Synergistic antitubercular activity against Mycobacterium tuberculosis H37Rv assessed as rifampin MIC=>90 at 0.8 ug/ml by microplate alamar blue assay (reference value: 0.06 uM); format: functional; conditions: dose 0.8 µg/ml
[32] = tested on: Mycobacterium tuberculosis; assay: Synergistic antitubercular activity against Mycobacterium tuberculosis H37Rv assessed as isoniazid MIC=>90 at 0.8 ug/ml by microplate alamar blue assay (reference value: 0.12 uM); format: functional; conditions: dose 0.8 µg/ml
[33] = tested on: Mycobacterium tuberculosis; assay: Synergistic antitubercular activity against Mycobacterium tuberculosis H37Rv in presence of bedaquiline by microplate alamar blue assay (reference value: 3.08 uM); format: functional
[34] = tested on: Mycobacterium tuberculosis; assay: Synergistic antitubercular activity against Mycobacterium tuberculosis H37Rv in presence of rifampin by microplate alamar blue assay (reference value: 3.08 uM); format: functional
[35] = tested on: Mycobacterium tuberculosis; assay: Synergistic antitubercular activity against Mycobacterium tuberculosis H37Rv in presence of isoniazid by microplate alamar blue assay (reference value: 3.08 uM); format: functional
[36] = tested on: Mycobacterium tuberculosis; assay: Synergistic antitubercular activity against Mycobacterium tuberculosis H37Rv assessed as bedaquiline MIC=>90 at 0.4 ug/ml by microplate alamar blue assay (reference value: 0.05 uM); format: functional; conditions: dose 0.4 µg/ml
[37] = tested on: Mycobacterium tuberculosis; assay: Synergistic antitubercular activity against Mycobacterium tuberculosis H37Rv assessed as rifampin MIC=>90 at 0.4 ug/ml by microplate alamar blue assay (reference value: 0.06 uM); format: functional; conditions: dose 0.4 µg/ml
[38] = tested on: Mycobacterium tuberculosis; assay: Synergistic antitubercular activity against Mycobacterium tuberculosis H37Rv assessed as isoniazid MIC=>90 at 0.4 ug/ml by microplate alamar blue assay (reference value: 0.12 uM); format: functional; conditions: dose 0.4 µg/ml
[39] = tested on: Mycobacterium tuberculosis; assay: Synergistic antitubercular activity against Mycobacterium tuberculosis H37Rv in presence of bedaquiline by microplate alamar blue assay (reference value: 2.59 uM); format: functional
[40] = tested on: Mycobacterium tuberculosis; assay: Synergistic antitubercular activity against Mycobacterium tuberculosis H37Rv in presence of rifampin by microplate alamar blue assay (reference value: 2.59 uM); format: functional
[41] = tested on: Mycobacterium tuberculosis; assay: Synergistic antitubercular activity against Mycobacterium tuberculosis H37Rv in presence of isoniazid by microplate alamar blue assay (reference value: 2.59 uM); format: functional

CC(C)N(C(=O)CCNCCC(c1ccccc1)c1ccccc1)C(C)C
MIC90 [1]: 3.11 µg/mL (≈ 8.48 µM)
MIC90 [2]: 2.97 µg/mL (≈ 8.1 µM)
MIC90 [3]: > 100 µg/mL
MIC90 [4]: > 100 µg/mL
MIC90 [5]: > 100 µg/mL
MIC90 [6]: > 100 µg/mL
MIC90 [7]: > 100 µg/mL
MIC90 [8]: 95.8 µg/mL (≈ 261 µM)
MIC90 [9]: 96.5 µg/mL (≈ 263 µM)
MIC90 [10]: > 100 µg/mL
MIC90 [11]: > 100 µg/mL
MIC90 [12]: > 100 µg/mL
MIC90 [13]: > 100 µg/mL
MIC90 [14]: > 100 µg/mL
inhibition of growth at 100 µg/mL [15]: 0%
inhibition of growth at 100 µg/mL [16]: 74%
inhibition of growth at 100 µg/mL [17]: 90%
inhibition of growth at 100 µg/mL [18]: 0%
inhibition of growth at 100 µg/mL [19]: 0%
MIC90 [20]: 4.58 µg/mL (≈ 12.5 µM)
MIC90 [21]: 4.68 µg/mL (≈ 12.8 µM)
MIC90 [22]: 6.11 µg/mL (≈ 16.7 µM)
MIC90 [23]: 8.79 µg/mL (≈ 24 µM)
MIC90 [24]: 8.73 µg/mL (≈ 23.8 µM)
IC50 at 3 days [25]: 45.9 µM
MBC99 [26]: 5480 µg/mL (≈ 15000 µM)
Activity [27]: inactive
Activity [28]: inactive
Activity [29]: inactive
MIC [30]: 0.03 µM
MIC [31]: 0.04 µM
MIC [32]: 0.12 µM
MIC [33]: 2.99 µg/mL
MIC [34]: 2.01 µg/mL
MIC [35]: 3.06 µg/mL

CC(C)N(C(=O)CCNCCCC1CCCC1)C(C)C
MIC90 [1]: 1.48 µg/mL (≈ 5.24 µM)
MIC90 [2]: 1.48 µg/mL (≈ 5.24 µM)
MIC90 [3]: > 100 µg/mL
MIC90 [4]: > 100 µg/mL
MIC90 [5]: > 100 µg/mL
MIC90 [6]: > 100 µg/mL
MIC90 [7]: > 100 µg/mL
MIC90 [8]: 49.2 µg/mL (≈ 174 µM)
MIC90 [9]: 48.1 µg/mL (≈ 170 µM)
MIC90 [10]: > 100 µg/mL
MIC90 [11]: > 100 µg/mL
MIC90 [12]: > 100 µg/mL
MIC90 [13]: > 100 µg/mL
MIC90 [14]: 49.6 µg/mL (≈ 176 µM)
inhibition of growth at 100 µg/mL [15]: 0%
inhibition of growth at 100 µg/mL [16]: 18%
inhibition of growth at 100 µg/mL [17]: 26%
inhibition of growth at 100 µg/mL [18]: 0%
inhibition of growth at 100 µg/mL [19]: 0%
MIC90 [20]: 1.8 µg/mL (≈ 6.37 µM)
MIC90 [21]: 1.54 µg/mL (≈ 5.45 µM)
MIC90 [22]: 2.92 µg/mL (≈ 10.3 µM)
MIC90 [23]: 3.11 µg/mL (≈ 11 µM)
MIC90 [24]: 4.37 µg/mL (≈ 15.5 µM)
IC50 at 3 days [25]: 69.7 µM
MBC99 [26]: 3020 µg/mL (≈ 10700 µM)
Activity [27]: inactive
Activity [28]: inactive
Activity [29]: inactive
MIC [36]: 0.04 µM
MIC [37]: 0.03 µM
MIC [38]: 0.12 µM
MIC [39]: 2.33 µg/mL
MIC [40]: 1.38 µg/mL
MIC [41]: 2.45 µg/mL
